For assay [1], the system named is Zelllinien des kleinzelligen Bronchialkarzinoms H69, SW2, OH1, OH3 und H82. The experiment in a line: XTT cell proliferation test, single agents Indometacin or IBMX. The class given is cell-based. An excerpt: Vor Beginn der Versuche zur Zellproliferation wurde zunächst für jede Zelllinie eine Eichkurve erstellt, um die optimale Zellzahl pro ml für die nachfolgenden Versuchsreihen zu ermitteln. Dafür wurde das Zellproliferationskit XTT (Roche, Penzberg, Deutschland) verwendet. Hierbei wird durch ein in allen vitalen Zellen vorhandenes Enzym das gelbe Tetrazoliumsalz XTT zum orangen Salz Formazan reduziert. Somit stellt die Extinktion der jeweiligen Zellkulturprobe ein Maß für die Anzahl der vitalen Zellen dar.
Die Zelllinien wurden in sieben verschiedenen Konzentrationen zwischen 10^4 und 10^7 Zellen pro ml in Mikrotiterplatten mit 96 Vertiefungen ausgesät. In jede Vertiefung wurde zunächst 10 µl PBS (pH 7,4) vorgelegt und dann 90 µl der Zellsuspension mit der jeweiligen Zellzahl pro ml zugegeben. Für jede Zelllinie wurden sechs parallele Ansätze hergestellt. Nach 72 Stunden Inkubation unter Standardbedingungen wurden 50 µl XTT Labeling Mixture pro Vertiefung zugegeben. Nach sechs Stunden wurde die Absorption bei 450 nm in einem Dynatech MR 3.13 Mikroelisa Reader gemessen und anhand der erzielten Werte Eichkurven erstellt. Figur 1 zeigt die Eichkurven für die Zelllinien H69, SW2, OH1, OH3 und H82OH1-Zellen. Die Zellzahlen wurden so gewählt, dass sich die Zellen bei ungehindertem Wachstum in der exponentiellen Wachstumsphase befanden. So ergab sich eine Konzentration von 160.000 Zellen pro ml für die Zelllinien OH3 und SW2, 300.000 Zellen pro ml für OH1, 500.000 Zellen pro ml für H69 und 750.000 Zellen pro ml für H82.
Dieser Versuch wurde mit allen oben genannten Zelllinien durchgeführt. Dafür wurden zunächst Lösungen der einzelnen Wirkstoffe in die Vertiefungen einer 96-Loch-Mikrotiterplatte gegeben. Die in Kulturmedium vorliegenden Zellsuspensionen wurden zugegeben, sodass sich ein Gesamtvolumen von 100 µl pro Vertiefung ergab.
Die Zellzahl für die jeweiligen Zelllinien betrug für SW2 205.700 Zellen pro ml, für H82 964.000 Zellen pro ml, für OH1 385.700 Zellen pro ml, für OH3 205.700 Zellen pro ml und für H69 643.000 Zellen pro ml. Da zum Lösen von Indometacin 5% Ethanol und zum Lösen von IBMX 1 % Ethanol verwendet wurde, bestand die Kontrolle aus 70 µl Zellsuspension mit der jeweiligen Zellzahl pro ml, 20 µl Medium und 10 µl Alkoholkontrolle mit einer Konzentration von 6% Ethanol. Im Gesamtvolumen von 100 µl ergab sich somit eine Alkoholkonzentration von 0,6%. Der Leerwert bestand aus 100 µl Medium. Jede gewählte Kombination der Wirkstoffe in den unterschiedlichen Konzentrationen wurde pro Versuch sechsfach getestet.

The next assay deals with H69 Zellen. The experiment in a line: XTT cell proliferation test, Meloxicam, Sildenafil and their combination. Format: cell-based. Particulars: Meloxicam alone, compared with Indomethacin. The protocol:
Die zu untersuchenden Zelllinien wurden mit den in den Figuren angegeben Konzentrationen von Indometacin und IBMX behandelt. Die Proliferationsversuche wurden in 96-Loch-Mikrotiterplatten durchgeführt; das Gesamtvolumen pro Vertiefung betrug 100 µl. 80 µl Zellsuspension wurde pro Vertiefung verwendet. Die Zellzahl der jeweils verwendeten Suspensionen betrug für SW2 180.000 Zellen pro ml, für OH1 338.000 Zellen pro ml, für OH3 180.000 Zellen pro ml und für H69 563.000 Zellen pro ml. Da zum Lösen sowohl von Indometacin 20% Ethanol als auch von IBMX 20% Ethanol verwendet wurde, bestand die Kontrolle aus 80 µl Zellsuspension mit der jeweiligen Zellzahl pro ml und 20 µl Alkoholkontrolle mit einer Konzentration von 20% Ethanol. Im Gesamtvolumen von 100 µl ergab sich so eine Alkoholkonzentration von 4%. Eine weitere Kontrolle bestand aus 80 µl Zellsuspension mit der jeweiligen Zellzahl pro ml und 20 µl Kulturmedium, um den wachstumshemmenden Effekt vom Ethanol erkennen zu können. Der Leerwert bestand aus 100 µl Kulturmedium.
H69 Zellen wurden wie in Beispiel 5 beschrieben mit Meloxicam und Sildefanil behandelt. […] Die Ergebnisse sind in Figur 10 dargestellt. Auch hier lässt sich eine signifikant synergistische Wirkung auf die Proliferation der H69-Zellen beobachten.

[2] abbreviates: 72 h, read-out: Inhibierung auf einen Wert von % der Alkoholkontrolle.

In the case of `CC(C)Cn1c(=O)n(C)c(=O)c2[nH]cnc21` [IBMX, 1-Methyl-3-(2-methylpropyl)-7H-purine-2,6-dione], the activity at 1500 µM in assay [1] (72 h, 1,5 mM IBMX, cell line not stated, read-out: Hemmung, % der Alkoholkontrolle) was found to be 51%. Further, the activity at 1250 µM in assay [1] (72 h, 1,25 mM IBMX, cell line not stated, read-out: Hemmung, % der Alkoholkontrolle) is 52%. Besides, the activity at 2000 µM in assay [1] (72 h, 2,0 mM IBMX, cell line not stated, read-out: Hemmung, % der Alkoholkontrolle) was 45%. Moreover, the activity at 750 µM in assay [1] (72 h, from 0,75 mM IBMX, cell line not stated, data not shown, read-out: Hemmung, % der Alkoholkontrolle) is about 80%. Also, the “Wirkung auf die verschiedenen Zellen des kleinzelligen Bronchialkarzinoms” value in assay [1] (single agent) is “antiproliferative Wirkung”.

Regarding `COc1ccc2c(c1)c(CC(=O)O)c(C)n2C(=O)c1ccc(Cl)cc1` [Indometacin, 2-[1-(4-Chlorbenzoyl)-5-methoxy-2-methyl-1H-indol-3-yl]essigsäure], in assay [1] (setting [2]), the activity at 200 µM is about 60% and the activity at 300 µM was about 60%.

With `Cc1cnc(NC(=O)C2=C(O)c3ccccc3S(=O)(=O)N2C)s1` [Meloxicam, 4-Hydroxy-2-methyl-N-(5-methyl-2-thiazolyl)-2H-1,2-benzothiazin-3-carboxamid-1,1-dioxid], the “Wirkung bei H69-Zellen” value with H69 Zellen is recorded as “wirkt bei H69-Zellen in den gleichen Dosierungen wie Indomethacin”.

Values taken from patent EP2384752A1, “Combination preparation comprising a phosphodiesterase inhibitor and a COX inhibitor for treating cancer” (Universitätsklinikum Hamburg-Eppendorf, priority 2010, dated 2011).
